Measurements: patent US7528175B2, “Method of treating airway diseases with beta-adrenergic inverse agonists” (Inverseon, Inc., priority 2005, dated 2009)
Like-named read-outs stand apart in the source and are kept apart here.

Experiments:
[1] = tested on: ovalbumin-sensitized, allergen-challenged mice; test: Acute nadolol and aminophylline, methacholine-induced bronchoconstriction; assay type: in vivo; conditions: nadolol 0.72 mg/kg i.p. 15 minutes prior to methacholine
Experimental: At time point 1 (time=−10 min) baseline airway resistance of the mice was determined.

[2] = tested on: β2-adrenergic receptor; test: Immunohistochemistry of β2-adrenergic receptor levels in lungs; assay type: in vivo, mice; conditions: chronic treatment vs untreated animals
Experimental: The mice were sacrificed and the lungs excised. […] Lungs were embedded in OCT and 12-μm sections cut with a Tissue-Tek II cryostat. […] After 3 washes in PBS, the slides were blocked with 5% milk in PBS for 1 h, and then incubated overnight with anti-β2-adrenergic receptor antibody (1:200, Santa Cruz Biotechnology) in blocking solution. Slides were washed in PBS and incubated with secondary antibody (1:200, Cy3 goat anti-rabbit, 16 h at 4° C.). […] After washing with PBS, coverslips were mounted and viewed by epifluorescent microscopy.

[3] = tested on: adults with mild asthma
From the text: (§1) Study Design: The study is an open-label Phase IIa, proof of principle, 11-week, dose escalation study in mild asthma. Up to twelve subjects with mild asthma, not taking inhaled corticosteroids or other controller medications are to be recruited from a single clinical research center. […] Combivent rescue medication was provided to subjects during the run-in period to replace their own rescue medication which typically is Albuterol (salbutamol a beta 2 partial agonist).
(§2) The subjects are maintained at their maximum tolerated dose for a minimum of 4 weeks.
(§3) All the following criteria had to be met for dose escalation otherwise the dose was kept at maintenance level (same dose), reduced to previous lower tolerated dose or the subject was terminated from the study.
(§4) Data collected at baseline and during study visits include lung function (spirometry—FEV1 and daily peak flow rates —PEFR), asthma symptoms via dairy cards), heart rate and blood pressure. In addition, airway hyper-responsiveness (methacholine challenge test—PC20) and Asthma Control Questionaire (Juniper ACQ) will be performed. Blood is collected to monitor beta adrenergic receptor levels in lymphocytes and baseline laboratory evaluation.

[4] = tested on: asthmatic mice; test: BALF cell number and type (Example 11); assay type: in vivo; conditions: vs nontreated asthmatic mice
From the text: The same mice as described in Example 1 underwent bronchoalveolar lavage (BAL) to determine the total number and type of immune system cells in the lung. BAL Fluid (BALF) was irrigated and collected from the lungs of mice as previously described (Evans K L, Bond R A, Corry […]. Frequency dependence of respiratory system mechanics during induced constriction in a murine model of asthma. J Appl Physiol. 2003 January;94(1):245-52). […] The number of neutrophils was increased in nontreated asthmatic mice compared to mice that served as controls for chronic beta-blocker treatments. In comparison to their notable effects on airway responsiveness, the β-AR ligands tested had very little effect on BALF cellularity. […] FIG. 12 has 3 panels of cell number and type of cells from the bronchoalveolar lavage fluid of asthmatic mice treated acutely or chronically with beta adrenergic ligands. Cells were identified as eosinophils (black bars), macrophages (hatched bars), neutrophils (grey bars), and lymphocytes (white bars) by standard morphologic criteria. At least 200 cells were counted per cytospin preparation, and the absolute number of each cell type was calculated based on the volume of fluid recovered from the lavage. […] Data are expressed as mean ±SEM and are representative of 6-25 animals per group. #P<0.05 compared to NTX, *P<0.05 compared to control (ANOVA).

[5] = tested on: asthmatic mice; test: Airway resistance (Raw) response to methacholine in murine model of asthma (forced oscillation); assay type: in vivo, Balb/cJ mice
Experimental: Balb/cJ mice aged 6 weeks (Jackson Animal Laboratory, Bar Harbor, Me.) were housed under specific pathogen-free conditions and fed a chicken ovalbumin-free diet. The Animal Research Ethics Boards of both the University of Houston and the Baylor College of Medicine approved all experiments reported here. […] Mice were sensitized with subcutaneous injection of 25 μg of ovalbumin adsorbed to aluminum hydroxide on protocol days 2, 9, and 16. Subsequently, mice were given 50 μL of saline solution containing 25 μg of ovalbumin intranasally, on a daily basis, from protocol days 23 through 27. A group of ovalbumin-sensitized saline-challenged mice serves as controls for systemic sensitization and respiratory challenges with ovalbumin. Prior to intranasal administrations, mice were sedated with halothane vapor.
To examine the effects of duration of β-adrenergic ligand therapy on the phenotype of the murine model of asthma, the experimental drugs were administered either acutely or chronically to different groups of asthmatic mice.
Asthmatic mice on acute therapy were given a single intravenous bolus infusion of either β-adrenergic drug or normal saline on protocol day 28, 15 minutes before airway responsiveness to methacholine was determined. […] […] […] These concentrations were chosen based on those producing therapeutic effects in mice in previously published studies. The non-asthmatic mice were fed normal chow.
On protocol day 28, mice were anesthetized, tracheotomized, and connected to a computer-controlled small animal ventilator (Flexivent, Scientific Respiratory Equipment, Inc., Montreal, Canada). Airway resistance (Raw) was measured using the forced oscillation technique. The cellular composition of bronchoalveolar lavage fluid (BALF) was also determined.
To induce airway constriction, a solution containing 150 μg/mL of acetyl-α-methylcholine chloride (methacholine) (Sigma Chemical, St. Louis, Mo.) was infused intravenously at constant rates using a syringe infusion pump (Raze Scientific Instruments, Stanford, Conn.). […] Each methacholine dose was administered for 3 to 5 minutes, during which data were sampled at 1-minute intervals and then averaged.
The complex input impedance of the respiratory system was computed and the value of the real part of respiratory system impedance at 19.75 Hz was taken to reflect the magnitude of airway resistance (Raw). To examine the degree of airway responsiveness of each animal, the values for Raw as a function of methacholine doses were plotted. The largest value for Raw achieved in response to methacholine stimulation was referred to as Rawpeak. For mice that achieved a plateau in the methacholine dose-Raw response curve, the ED50 was calculated by linear interpolation using the GraphPad Prism4 (GraphPad Software, Inc.). […] The Bonferroni test was used to examine the statistical differences between experimental groups. The effects of acute drug treatments on baseline respiratory system mechanics were assessed using a two-tailed paired t-test. A value of P<0.05 was considered significant.
For these experiments, salbutamol was used for chronic administration at 0.5 mg/kg/day with a minipump and for acute administration at 0.15 mg/kg by i.v. bolus 15 minutes prior to challenge. Alprenolol was used at a high dose of 7200 ppm in chow or at a low dose of 720 ppm in chow. Carvedilol was used at a high dose of 2400 ppm in chow or at a low dose of 720 ppm in chow.

[6] = tested on: adults with mild asthma; conditions: human, in vivo
From the text: as §1, §2, §3, §4

[7] = cited from earlier work
[8] = tested on: asthmatic mice; test: Total number of immune cells in BALF (Example 12); assay type: in vivo; conditions: did not reach statistical significance
Experimental: Bronchial alveolar lavage fluid was collected from treated animals and total immune cell number was determined and the total number of eosinophils was also determined. Additionally, the interleukin 10 (IL-10) levels were determined in the mice.

[9] = tested on: asthmatic mice; conditions: Callaerts-Vegh et al. 2004, cited from earlier work

## CC(C)(C)NCC(O)COc1cccc2c1CC(O)C(O)C2 (stereo not shown) [nadolol]
[1]
  baseline airway resistance: same baseline airway resistance as non-drug treated sensitized and allergen-challenged mice
[2]
  labeling with anti-β2-adrenergic receptor antibodies in lungs: considerably more intense
[3]; Asthma Control Questionnaire, absolute change from baseline, per subject
  ACQ Score Δ: results were mixed
[3]; average last 14 days of treatment vs last 14 days of run-in, per subject
  PEFR % Change baseline: essentially no effect
[3]; chronic nadolol
  subjects with reduction in airway twitchiness (increased PC20): 4 of 5
[3]; chronic nadolol, 5 subjects
  subjects with PC20 doubling doses within the 1.5 limit: Two subjects
  subjects with increases of doubling doses greater than 1.5: 3 subjects
[3]; methacholine PC20 change from baseline at the end of the trial, per subject
  PC20 Doubling Dose: more pronounced effect on airway hyper-responsiveness
[3]; rescue medication use, absolute change from baseline, per subject
  Puffs/Day Mean Change per Day: results were mixed
[4]; acute treatment (15 minutes)
  BALF cellularity: significant elevations in the number of neutrophils
[4]; chronic treatment (28 days)
  BALF cellularity: significant elevations in the number of neutrophils
[5]; 1 ppm in chow
  airway resistance (Raw): identical to the untreated mice
[5]; 15 minutes of administration
  Decreased Raw: no
[5]; 2 days of administration
  Decreased Raw: yes
[5]; 28 days of administration
  Decreased Raw: yes
[5]; acute, parenteral administration, asthmatic mice
  airway function: significant reduction in airway function
[5]; asthmatic mice, acute: single intravenous bolus 15 minutes before methacholine
  airway responsiveness to methacholine provocation (Raw): enhanced the airway responsiveness
[5]; asthmatic mice, chronic administration for 28 days
  airway responsiveness to methacholine provocation (Raw): produced a decrease in airway responsiveness, which was more pronounced than that caused by carvedilol treatment
[5]; chronic administration, low and high doses in chow (FIGS. 8D-8G)
  protection from airway hyperresponsiveness: providing protection from airway hyperresponsiveness
[5]; orally in the animal chow at 250 ppm
  observed airway adverse effects: noticeably wheezing and airway distress
[6]
  serious adverse events due to study drug administration: No serious adverse events
  tolerability of the first dose: All subjects tolerated the first 10 mg dose
[7]; immediate-release oral tablets once a day
  time to maximum drug in the bloodstream: about 3.5 hours
[7]; immediate-release oral tablets
  half-life: about 16 hours
[8]; acute treatment
  lower number of cells in BALF compared to non-drug-treated (S/C) mice: approximately 25%
[8]; chronic treatment
  lower number of cells in BALF compared to non-drug-treated (S/C) mice: approximately 25%
[9]; administered acutely
  airway hyperresponsiveness: worsens airway hyperresponsiveness
[9]; administered chronically
  airway hyperresponsiveness: prevents airway hyperresponsiveness
